Experimental data reported in PMC6308944, “Anti-Candida albicans Activity of Thiazolylhydrazone Derivatives in Invertebrate and Murine Models” (Journal of Fungi, 2018).
Values after ≈ are worked out from the molar mass of the structure shown.

Assays:
[1] = tested on: C. tropicalis (ATCC13803); assay: MIC, broth microdilution (CLSI M27-A3), reference isolate; conditions: Candida tropicalis
[2] = tested on: Candida albicans clinical isolates; assay: MIC, broth microdilution, clinical isolates
[3] = tested on: Cryptococcus neoformans clinical isolates; assay: MIC, broth microdilution, clinical isolates
[4] = tested on: C. parapsilosis (ATCC22019); assay: MIC, broth microdilution (CLSI M27-A3), reference isolate; conditions: Lodderomyces parapsilosis
[5] = tested on: C. dublinensis (MYA-646); assay: as above; conditions: Candida dubliniensis
[6] = tested on: C. glabrata (ATCC90030); assay: as above; conditions: Nakaseomyces glabratus
[7] = tested on: Candida glabrata clinical isolates; assay: MIC, broth microdilution, clinical isolates
[8] = tested on: Candida parapsilosis isolates; assay: MIC, broth microdilution, clinical isolates
[9] = tested on: C. neoformans (H99); assay: MIC, broth microdilution (CLSI M27-A3), reference isolate; conditions: Cryptococcus neoformans
[10] = tested on: C. albicans (CAN14); assay: as above; conditions: Candida albicans
[11] = tested on: C. krusei (ATCC6258); assay: as above; conditions: Pichia kudriavzevii
[12] = tested on: C. albicans (DAY-185); assay: as above; conditions: Candida albicans, 48 h

C[C@@H]1[C@H](O)[C@@H](C)/C=C/C=C/C=C/C=C/C=C/C=C/C=C/[C@H](O[C@@H]2O[C@H](C)[C@@H](O)[C@H](N)[C@@H]2O)C[C@@H]2O[C@](O)(C[C@@H](O)C[C@@H](O)[C@H](O)CC[C@@H](O)C[C@@H](O)CC(=O)O[C@H]1C)C[C@H](O)[C@H]2C(=O)O [Amphotericin B]
MIC [1]: 4 µg/mL (≈ 4.33 µM)
MIC50 ([2]; Candida albicans): 0.25 µg/mL (≈ 0.271 µM)
MIC90 ([2]; Candida albicans): 0.25 µg/mL (≈ 0.271 µM)
MIC ([2]; Candida albicans, C. albicans clinical isolate 1): 0.25 µg/mL (≈ 0.271 µM)
MIC ([2]; Candida albicans, C. albicans clinical isolate 02A): 0.25 µg/mL (≈ 0.271 µM)
MIC ([2]; Candida albicans, C. albicans clinical isolate 02B): 0.25 µg/mL (≈ 0.271 µM)
MIC ([2]; Candida albicans, C. albicans clinical isolate 6): 0.5 µg/mL (≈ 0.541 µM)
MIC ([2]; Candida albicans, C. albicans clinical isolate 7): 0.125 µg/mL (≈ 0.135 µM)
MIC ([2]; Candida albicans, C. albicans clinical isolate 9): 0.25 µg/mL (≈ 0.271 µM)
MIC ([2]; Candida albicans, C. albicans clinical isolate 10): 0.25 µg/mL (≈ 0.271 µM)
MIC ([2]; Candida albicans, C. albicans clinical isolate 11): 0.125 µg/mL (≈ 0.135 µM)
MIC ([2]; Candida albicans, C. albicans clinical isolate 13): 0.125 µg/mL (≈ 0.135 µM)
MIC90 ([2]; nine C. albicans clinical isolates): 0.25 µg/mL (≈ 0.271 µM)
MIC50 [3]: 0.125 µg/mL (≈ 0.135 µM)
MIC90 [3]: 0.25 µg/mL (≈ 0.271 µM)
MIC ([3]; C. neoformans clinical isolate 27JF): 0.25 µg/mL (≈ 0.271 µM)
MIC ([3]; C. neoformans clinical isolate 28JF): 0.125 µg/mL (≈ 0.135 µM)
MIC ([3]; C. neoformans clinical isolate 93): 0.25 µg/mL (≈ 0.271 µM)
MIC ([3]; C. neoformans clinical isolate 94): 0.25 µg/mL (≈ 0.271 µM)
MIC ([3]; C. neoformans clinical isolate 646B): 0.125 µg/mL (≈ 0.135 µM)
MIC ([3]; C. neoformans clinical isolate 975): 0.125 µg/mL (≈ 0.135 µM)
MIC ([3]; C. neoformans clinical isolate 9220): 0.125 µg/mL (≈ 0.135 µM)
MIC ([3]; C. neoformans clinical isolate 9273): 0.125 µg/mL (≈ 0.135 µM)
MIC ([3]; C. neoformans clinical isolate 10131): 0.125 µg/mL (≈ 0.135 µM)
MIC ([3]; C. neoformans clinical isolate 10211): 0.125 µg/mL (≈ 0.135 µM)
MIC ([3]; C. neoformans clinical isolate 10264): 0.125 µg/mL (≈ 0.135 µM)
MIC ([3]; C. neoformans clinical isolate 10335): 0.125 µg/mL (≈ 0.135 µM)
MIC ([3]; C. neoformans clinical isolate 10379): 0.125 µg/mL (≈ 0.135 µM)
MIC ([3]; C. neoformans clinical isolate 41292): 0.125 µg/mL (≈ 0.135 µM)
MIC ([3]; C. neoformans clinical isolate 41295): 0.125 µg/mL (≈ 0.135 µM)
MIC ([3]; C. neoformans clinical isolate 41296): 1 µg/mL (≈ 1.08 µM)
MIC ([3]; C. neoformans clinical isolate 41297): 0.125 µg/mL (≈ 0.135 µM)
MIC ([3]; C. neoformans clinical isolate 41298): 0.125 µg/mL (≈ 0.135 µM)
MIC ([3]; C. neoformans clinical isolate 41299): 0.125 µg/mL (≈ 0.135 µM)
MIC ([3]; C. neoformans clinical isolate 90896): 0.125 µg/mL (≈ 0.135 µM)
MIC ([3]; C. neoformans clinical isolate 92868): 0.25 µg/mL (≈ 0.271 µM)
MIC ([3]; C. neoformans clinical isolate BF113): 1 µg/mL (≈ 1.08 µM)
MIC ([3]; C. neoformans clinical isolate BF114): < 0.0625 µg/mL
MIC ([3]; C. neoformans clinical isolate C31): 0.125 µg/mL (≈ 0.135 µM)
MIC ([3]; C. neoformans clinical isolate F10): 0.25 µg/mL (≈ 0.271 µM)
MIC ([3]; C. neoformans clinical isolate RN01): 0.125 µg/mL (≈ 0.135 µM)
MIC ([3]; C. neoformans clinical isolate WP): 1 µg/mL (≈ 1.08 µM)
MIC [4]: 2 µg/mL (≈ 2.16 µM)
MIC [5]: 1 µg/mL (≈ 1.08 µM)
MIC [6]: 2 µg/mL (≈ 2.16 µM)
MIC50 ([7]; Nakaseomyces glabratus): 0.5 µg/mL (≈ 0.541 µM)
MIC90 ([7]; Nakaseomyces glabratus): 1 µg/mL (≈ 1.08 µM)
MIC ([7]; Nakaseomyces glabratus, C. glabrata clinical isolate 6922): 0.5 µg/mL (≈ 0.541 µM)
MIC ([7]; Nakaseomyces glabratus, C. glabrata clinical isolate 6927): 1 µg/mL (≈ 1.08 µM)
MIC ([7]; Nakaseomyces glabratus, C. glabrata clinical isolate 6931): 0.5 µg/mL (≈ 0.541 µM)
MIC ([7]; Nakaseomyces glabratus, C. glabrata clinical isolate 6932): 0.5 µg/mL (≈ 0.541 µM)
MIC ([7]; Nakaseomyces glabratus, C. glabrata clinical isolate 6943): 1 µg/mL (≈ 1.08 µM)
MIC ([7]; Nakaseomyces glabratus, C. glabrata clinical isolate 7110): 0.5 µg/mL (≈ 0.541 µM)
MIC ([7]; Nakaseomyces glabratus, C. glabrata clinical isolate 7221): 0.5 µg/mL (≈ 0.541 µM)
MIC ([7]; Nakaseomyces glabratus, C. glabrata clinical isolate 7255): 1 µg/mL (≈ 1.08 µM)
MIC ([7]; Nakaseomyces glabratus, C. glabrata clinical isolate 7815): 0.5 µg/mL (≈ 0.541 µM)
MIC ([7]; Nakaseomyces glabratus, C. glabrata clinical isolate 7871): 1 µg/mL (≈ 1.08 µM)
susceptibility of isolates according to CLSI M27-S4 ([7]; all C. glabrata clinical isolates): sensitive
MIC90 ([8]; C. parapsilosis isolates): 0.5 µg/mL (≈ 0.541 µM)
MIC50 ([8]; Lodderomyces parapsilosis): 0.25 µg/mL (≈ 0.271 µM)
MIC90 ([8]; Lodderomyces parapsilosis): 0.5 µg/mL (≈ 0.541 µM)
MIC ([8]; Lodderomyces parapsilosis, C. parapsilosis isolate 6901): 0.5 µg/mL (≈ 0.541 µM)
MIC ([8]; Lodderomyces parapsilosis, C. parapsilosis isolate 6917): 0.25 µg/mL (≈ 0.271 µM)
MIC ([8]; Lodderomyces parapsilosis, C. parapsilosis isolate 6933): 0.5 µg/mL (≈ 0.541 µM)
MIC ([8]; Lodderomyces parapsilosis, C. parapsilosis isolate 7449): 0.5 µg/mL (≈ 0.541 µM)
MIC ([8]; Lodderomyces parapsilosis, C. parapsilosis isolate 7585): 0.25 µg/mL (≈ 0.271 µM)
MIC ([8]; Lodderomyces parapsilosis, C. parapsilosis isolate 7652): 0.25 µg/mL (≈ 0.271 µM)
MIC ([8]; Lodderomyces parapsilosis, C. parapsilosis isolate 7839): 0.5 µg/mL (≈ 0.541 µM)
MIC ([8]; Lodderomyces parapsilosis, C. parapsilosis isolate 7970A): 0.25 µg/mL (≈ 0.271 µM)
MIC ([8]; Lodderomyces parapsilosis, C. parapsilosis isolate 8044): 0.5 µg/mL (≈ 0.541 µM)
MIC ([8]; Lodderomyces parapsilosis, C. parapsilosis isolate 8662): 0.25 µg/mL (≈ 0.271 µM)
MIC [9]: 4 µg/mL (≈ 4.33 µM)
MIC [10]: 1 µg/mL (≈ 1.08 µM)
MIC [11]: 8 µg/mL (≈ 8.66 µM)
MIC [12]: 1 µg/mL (≈ 1.08 µM)
